Legend:
[1] = tested on: LNCaP cells expressing truncated AR isoforms; settings: Watson et al., 2010; cited from earlier work
[2] = tested on: patients with ADI prostate cancer; settings: Phase II trial; Scher et al., 2010; cited from earlier work
[3] = tested on: androgen receptor target genes; settings: 22Rv1 cells; Dehm et al., 2008; cited from earlier work
[4] = tested on: androgen receptor; assay: AR knock-down by siRNA in 22Rv1 cells, Western blot; format: cell-based, human; settings: for expression of androgen receptor isoforms (Western blot): FIG. 3B
Protocol: FIG. 3. A) Schematic of androgen receptor mRNA isoforms expressed in 22Rv1 cells. DBD*, Exon 3-duplicated AR. B) 22Rv1 cells were electroporated with siRNAs targeted to Exons […]. androgen receptor and ERK-2 levels were determined. C) Rabbit antisera were raised against an Exon 2b-derived peptide. Equal amounts of 22Rv1 lysates were immunoprecipitated with crude antisera, or antibody purified on an immobilized Exon2b-peptide column, non-specific rabbit IgG, or a rabbit polyclonal antibody specific for the androgen receptor NTD. Western blots were performed with a mouse monoclonal antibody specific for the androgen receptor NTD.
We have investigated mechanisms of prostate cancer therapy resistance in cell- and xenograft-based models of prostate cancer progression with a focus on ligand-independent androgen receptor activation (Dehm and Tindall, 2006 J Biol Chem 281:27882-93; Dehm and Tindall, 2007 Mol Endocrinol 21:2855-63). One model of interest is the ADI 22Rv1 prostate cancer cell line, which was derived from an androgen-dependent CWR22 prostate cancer xenograft that relapsed during androgen depletion (Sramkoski et al., 1999 In Vitro Cell Dev Biol Anim 35:403-9). […] The Exon 1 and Exon 7 targeted siRNAs were purchased from Dharmacon, Inc. (Lafayette, Colo.). The sequences are as follows:
Truncated androgen receptor from 22Rv1 cells appears as a doublet in Western blot experiments (FIG. 3B). Because 3′ RACE experiments identified AR 1/2/2b and AR 1/2/3/2b as alternatively spliced androgen receptor isoforms in this cell line, we pursued the hypothesis that these two discrete bands represented AR 1/2/2b and AR 1/2/3/2b (Dehm et al., 2008 Cancer Res 68:5469-77). […] To this end, we tested siRNAs targeted to AR Exon 1, AR Exon 3, or AR Exon 7 (FIG. 3A).
Western blotting of CWR22Pc and 22Rv1 lysates with AR (Santa Cruz N-20), ERK-2 (Santa Cruz D-2), and ARV-7 (Precision Antibody #AG10008) antibodies was performed exactly as described (Dehm et al., 2008 Cancer Res 68:5469-77).

[5] = tested on: 22Rv1 cells; settings: Dehm et al., 2008; cited from earlier work

For `CNC(=O)c1ccc(N2C(=S)N(c3ccc(C#N)c(C(F)(F)F)c3)C(=O)C2(C)C)cc1F` [MDV3100], the “androgen-independent growth of LNCaP cells expressing truncated AR isoforms” value [1] is listed as “inhibit” and the “share of CRPCa patients with robust decrease in serum PSA levels (at least 50%), stabilized bone disease, conversion of CTC counts to favorable” value [2] is listed as “one-half”.
For “AR Exon 1-targeted siRNA: Dharmacon siRNA duplex targeted to AR Exon 1; sense SEQ ID NO: 1, antisense SEQ ID NO: 2 (sense CAAGGGAGGUUACACCAAAUU; antisense UUUGGUGUAACCUCCCUUGUU; listed as RNA, chemistry not given here)”, the “androgen-independent expression of androgen receptor target genes” value [3] is given as “inhibited”, the “expression of a ~80 kDa androgen receptor protein species” value [4] is given as “knocked-down” and the “expression of androgen receptor isoforms (Western blot)” value [4] is given as “knocked down expression of all androgen receptor isoforms”. The “androgen-independent proliferation of 22Rv1 cells” value [5] was “inhibited”.
In the case of “AR Exon 7-targeted siRNA: Dharmacon siRNA duplex targeted to AR Exon 7; sense SEQ ID NO: 3, antisense SEQ ID NO: 4 (sense GGAACUCGAUCGUAUCAUUUU; antisense AAUGAUACGAUCGAGUUCCUU; listed as RNA, chemistry not given here)”, the “androgen-independent expression of androgen receptor target genes” value [3] is listed as “not”, the “expression of androgen receptor isoforms (Western blot)” value [4] is listed as “selectively knocked down expression of full-length androgen receptor” and the “androgen-independent proliferation of 22Rv1 cells” value [5] is listed as “not”.
